Test results as given in US4108987A, “Cyclic hexapeptides” (Merck & Co., Inc., priority 1977, dated 1978).
Square brackets hold non-standard residues; d marks the D form. Peptide text beside a SMILES is read from it.

System: rumen fluid which contained methane-producing bacteria and other rumen bacteria
Experiment: In vitro rumen fermentation test
Assay type: cell-based
Description: Rumen fluid which contained methane-producing bacteria and other rumen bacteria was produced in a fermentor which was set up and maintained to simulate the conditions of a rumen.
The test was carried out in a screw-cap tube which was sealed with a butyl rubber stopper. […] The air in the tube was replaced with a gas mixture of 97% nitrogen-3% hydrogen made free of oxygen by passage through a catalytic purifier. After incubation for 18 hours in a water bath shaker at 39° C., 0.5 ml. of the gas was removed through the stopper into the sample loop of a Fisher Gas Partitioner. The gas sample was partitioned, and the methane produced was compared to a standard gas mixture containing a known amount of methane. The incubation mixture was acidified with 4 ml. of 10% metaphosphoric acid and centrifuged. One μl. of the supernate was analyzed by gas-liquid chromatography. The volatile fatty acids were compared to a standard volatile fatty acid mixture containing known amounts of acetic, propionic, butyric and valeric acids. Appropriate controls were included.

Compound: O=C1N[C@H](Cc2ccccc2)C(=O)N2CCC[C@H]2C(=O)N[C@H](Cc2ccccc2)C(=O)N2CCC[C@H]2C(=O)N[C@H](Cc2ccccc2)C(=O)N2CCC[C@@H]12 [cyclo(Pro-D-Phe)3, Cyclo(Pro-D-Phe)3] (cyclo(P[dF]P[dF]P[dF]))
- CH4 (methane) produced (250 μg./ml. of tested compound, incubation 18 hours at 39° C., gas partitioner): essentially eliminated
- shift in VFA ratios (250 μg./ml. of tested compound, incubation 18 hours at 39° C., gas-liquid chromatography): significant shift in VFA ratios favoring the longer chain acids
- Valeric acid, μmols (Treated 16 μg./ml., control 1.8): 4.5 μmols
- Valeric acid, μmols % (Treated 16 μg./ml., control 3.0): 7.0 μmols %
- Butyric acid, μmols (Treated 16 μg./ml., control 7.1): 15.3 μmols
- Butyric acid, μmols % (Treated 16 μg./ml., control 10.5): 25.0 μmols %
- Propionic acid, μmols (Treated 16 μg./ml., control 19.5): 23.0 μmols
- Propionic acid, μmols % (Treated 16 μg./ml., control 28.5): 37.0 μmols %
- Acetic acid, μmols (Treated 16 μg./ml., control 39.9): 18.8 μmols
- Acetic acid, μmols % (Treated 16 μg./ml., control 58.5): 31.0 μmols %
- Total volatile fatty acids, μmols (Treated 16 μg./ml., control 68.3): 61.6 μmols
- production of VFAs (summary of tabulated data) (in vitro rumen fermentation): effective in increasing the production of the VFAs, propionic, butyric and valeric at the expense of methane and acetate
